Source: PMC9206137, “Synergistic anti-SARS-CoV-2 activity of repurposed anti-parasitic drug combinations” (BMC Pharmacology & Toxicology, 2022)
“And” between values parts separate entries of the source, which are not always exact repeats. Equal values may be shown once. Read-outs that look alike come from different tables or passages of the source.

How the values were obtained:
SARS-CoV-2 [1] = experiment: Antiviral activity against SARS-CoV-2 in Vero E6 cells, plaque assay; assay type: cell-based; conditions: for IC50 / %inhibition (plaque assay): Vero E6; for IC50: MOI 0.01, 48 hours, single drug
[2] = Cell viability assay (MTT) in Vero E6 cells; conditions: African green monkey, %cell viability, Vero E6, replicates
Protocol: (§1) Subsequently, the cell viability was assessed using MTT dyes (Invitrogen) in duplicate (Supplementary file 1). The procedure was described elsewhere. The viability of drug-treated cells was expressed as percent cell viability relative to 0.5% DMSO-treated cells.

SARS-CoV-2 [3] = conditions: because of the expression of TMPRSS2; cited from earlier work
SARS-CoV-2 [4] = experiment: Antiviral activity against SARS-CoV-2 in Vero E6 cells, one-step qRT-PCR (single drugs, two-drug combinations, synergy analysis); conditions: for %inhibition (qRT-PCR) / IC50: Vero E6; for %inhibition (qRT-PCR) / % inhibition: replicates; for % inhibition: Vero E6 cells; for IC50: read-out: IC50 (μM) qRT-PCR, MOI 0.01, 48 hours, single drug
Vero E6 cells = experiment: Cell viability assay (MTT) in Vero E6 cells; conditions: for %cell viability / cell viability: replicates; for cell viability: Vero E6 cells
Protocol: as §1

SARS-CoV-2 [5] = experiment: microbe, parasite or virus in culture; assay type: cell-based; conditions: for %inhibition (plaque assay) / % inhibition: replicates; for % inhibition: Calu-3 cells
Calu-3 cells = experiment: Cell viability assay (MTT) in Calu-3 cells; conditions: for %cell viability / cell viability: replicates; for cell viability: Calu-3 cells
Protocol: as §1

[6] = humans; oral 200 μg/kg; mean ± SD; cited from earlier work
[7] = calculated based on lung: plasma ratio in cattle; cited from earlier work
dengue virus = conditions: read-out: IC50 against dengue virus, cited from earlier work
SARS-CoV-2 [8] = conditions: cited from earlier work
[9] = tested on: plasma nonstructural protein 1; conditions: dengue patients; cited from earlier work

Compound `CCN(CC)CCCC(C)Nc1ccnc2cc(Cl)ccc12` (stereo not drawn) [Chloroquine, chloroquine] has an inhibition at 0.625 µM (SARS-CoV-2 [1]; Severe acute respiratory syndrome coronavirus 2, Vero C1008, Vero E6, chloroquine 0.625 uM, replicates) of 50%, an inhibition at 1.25 µM (SARS-CoV-2 [1]; Severe acute respiratory syndrome coronavirus 2, Vero C1008, Vero E6, chloroquine 1.25 uM, replicates) of 61.4% and an inhibition at 2.5 µM (SARS-CoV-2 [1]; Severe acute respiratory syndrome coronavirus 2, Vero C1008, Vero E6, chloroquine 2.5 uM, replicates) of 70%. The inhibition at 5 µM (SARS-CoV-2 [1]; Severe acute respiratory syndrome coronavirus 2, Vero C1008, Vero E6, chloroquine 5 uM, replicates) was 85.1%, the IC50 (SARS-CoV-2 [1]; Severe acute respiratory syndrome coronavirus 2, Vero C1008) was 0.83 µM and the “%inhibition (plaque assay)” value (SARS-CoV-2 [1]; chloroquine 0.15625 uM, replicates) was 5.00% and 10.00%. For the same compound, the “%inhibition (plaque assay)” value (SARS-CoV-2 [1]; chloroquine 0.3125 uM, replicates) was 15.00% and 6.06% and 11.00%, the “%inhibition (plaque assay)” value (SARS-CoV-2 [1]; chloroquine 0.625 uM, replicates) was 55.50% and the “%inhibition (plaque assay)” value (SARS-CoV-2 [1]; chloroquine 1.25 uM, replicates) was 73.20% and 66.30%. For the same compound, the “%inhibition (plaque assay)” value (SARS-CoV-2 [1]; chloroquine 2.5 uM, replicates) was 75.00% and 69.50%, the “%inhibition (plaque assay)” value (SARS-CoV-2 [1]; chloroquine 5 uM, replicates) was 87.00% and 85.00% and the viability at 48 h, 40 uM ([2]; chloroquine 40 uM) was 78.5%. The viability at 48 h, 160 uM ([2]; chloroquine 160 uM) was 34.5%, the “inhibition of SARS-CoV-2 in human lung cells” value (SARS-CoV-2 [3]) was “could not inhibit” and the “%inhibition (qRT-PCR)” value (SARS-CoV-2 [4]; chloroquine 0.15625 uM) was 14.20% and 15.40% and 13.50%. The “%inhibition (qRT-PCR)” value (SARS-CoV-2 [4]; chloroquine 0.3125 uM) was 29.59% and 23.98%, the “%inhibition (qRT-PCR)” value (SARS-CoV-2 [4]; chloroquine 0.625 uM) was 47.22% and 54.26% and 49.79% and the “%inhibition (qRT-PCR)” value (SARS-CoV-2 [4]; chloroquine 1.25 uM) was 51.48% and 58.46% and 54.05%. For the same compound, the “%inhibition (qRT-PCR)” value (SARS-CoV-2 [4]; chloroquine 2.5 uM) was 67.75% and 70.05% and 70.73%, the “%inhibition (qRT-PCR)” value (SARS-CoV-2 [4]; chloroquine 5 uM) was 88.11% and 84.26% and 88.40% and the “% inhibition” value (SARS-CoV-2 [4]; Chloroquine 0.2125 uM alone) was 32.17% and 30.26% and 30.74%. The “% inhibition” value (SARS-CoV-2 [4]; Chloroquine 0.425 uM alone) was 35.38% and 45.66% (2×), the “% inhibition” value (SARS-CoV-2 [4]; Chloroquine 0.85 uM alone) was 58.25% and 55.25% and 59.67% and the “% inhibition” value (SARS-CoV-2 [4]; Chloroquine 1.7 uM alone) was 76.18% and 70.48% and 73.21%. For the same compound, the IC50 (SARS-CoV-2 [4]) was 0.89 µM.

For ivermectin, the IC50 (SARS-CoV-2 [1]) was 1.23 µM, the “%inhibition (plaque assay)” value (SARS-CoV-2 [1]; ivermectin 0.15625 uM, replicates) was 7.34% and 7.50% and 7.15% and the “%inhibition (plaque assay)” value (SARS-CoV-2 [1]; ivermectin 0.3125 uM, replicates) was 29.78% and 21.00% and 25.31%. For the same compound, the “%inhibition (plaque assay)” value (SARS-CoV-2 [1]; ivermectin 0.625 uM, replicates) was 30.26% (2×) and 32.64%, the “%inhibition (plaque assay)” value (SARS-CoV-2 [1]; ivermectin 1.25 uM, replicates) was 52.64% and 56.27% and 48.59% and the “%inhibition (plaque assay)” value (SARS-CoV-2 [1]; ivermectin 2.5 uM, replicates) was 63.02% and 62.70% and 66.77%. The “%inhibition (plaque assay)” value (SARS-CoV-2 [1]; ivermectin 5 uM, replicates) was 78.39% and 83.51% and 83.02%, the CC50 (Vero E6 cells; Vero E6, MTT, 48 hours) was 10.6 µM and the “%cell viability” value (Vero E6 cells; Vero E6, ivermectin 0.15625 uM) was 102.24%. The “%cell viability” value (Vero E6 cells; Vero E6, ivermectin 0.3125 uM) was 100.47% and 100.17%, the “%cell viability” value (Vero E6 cells; Vero E6, ivermectin 0.625 uM) was 102.19% and the “%cell viability” value (Vero E6 cells; Vero E6, ivermectin 1.25 uM) was 100.11% and 101.75%. For the same compound, the “%cell viability” value (Vero E6 cells; Vero E6, ivermectin 2.5 uM) was 99.32%, the “%cell viability” value (Vero E6 cells; Vero E6, ivermectin 5 uM) was 83.87% and 88.89% and the “%cell viability” value (Vero E6 cells; Vero E6, ivermectin 10 uM) was 55.14% and 53.62% and 46.86%. The “%cell viability” value (Vero E6 cells; Vero E6, ivermectin 20 uM) was 21.86% and 15.62% and 14.14%, the “%cell viability” value (Vero E6 cells; Vero E6, ivermectin 40 uM) was 12.31% and 10.14% and 11.10% and the cell viability (Vero E6 cells; Ivermectin 0.3 uM alone) was 100.47 and 100.17. For the same compound, the cell viability (Vero E6 cells; Ivermectin 0.6 uM alone) was 102.19, the cell viability (Vero E6 cells; Ivermectin 1.2 uM alone) was 100.11 and 101.75 and the cell viability (Vero E6 cells; Ivermectin 2.4 uM alone) was 99.32. The IC50 (SARS-CoV-2 [5]; Calu-3, 500 TCID50, plaque assay, single drug) was 0.2 µM, the “%inhibition (plaque assay)” value (SARS-CoV-2 [5]; Calu-3, ivermectin 0.048828 uM) was 7.34% and 7.50% and 6.92% and the “%inhibition (plaque assay)” value (SARS-CoV-2 [5]; Calu-3, ivermectin 0.195313 uM) was 43.75% and 44.69% and 42.02%. The “%inhibition (plaque assay)” value (SARS-CoV-2 [5]; Calu-3, ivermectin 0.390625 uM) was 55.86% and 56.30% and 55.45%, the “%inhibition (plaque assay)” value (SARS-CoV-2 [5]; Calu-3, ivermectin 0.78125 uM) was 63.14% and 86.03% and 74.50% and the “%inhibition (plaque assay)” value (SARS-CoV-2 [5]; Calu-3, ivermectin 1.5625 uM) was 90.72% and 80.25% and 82.92%. For the same compound, the “%inhibition (plaque assay)” value (SARS-CoV-2 [5]; Calu-3, ivermectin 3.125 uM) was 98.34% and 97.94% and 90.53%, the “% inhibition” value (SARS-CoV-2 [5]; Ivermectin 0.05 uM alone) was 26.67% (2×) and 33.33% and the “% inhibition” value (SARS-CoV-2 [5]; Ivermectin 0.10 uM alone) was 33.33% and 26.67% and 40.00%. The “% inhibition” value (SARS-CoV-2 [5]; Ivermectin 0.20 uM alone) was 40.00% and 66.67% and 53.33%, the “% inhibition” value (SARS-CoV-2 [5]; Ivermectin 0.40 uM alone) was 53.33% and 73.33% and 66.67% and the CC50 (Calu-3 cells; Calu-3, MTT, 48 hours) was 3.1 µM. For the same compound, the “%cell viability” value (Calu-3 cells; Calu-3, ivermectin 0.048828 uM) was 101.77% and 102.10%, the “%cell viability” value (Calu-3 cells; Calu-3, ivermectin 0.195313 uM) was 103.33% and the “%cell viability” value (Calu-3 cells; Calu-3, ivermectin 0.390625 uM) was 106.67% and 102.92%. The “%cell viability” value (Calu-3 cells; Calu-3, ivermectin 0.78125 uM) was 103.89%, the “%cell viability” value (Calu-3 cells; Calu-3, ivermectin 1.5625 uM) was 100.11% and 106.94% and the “%cell viability” value (Calu-3 cells; Calu-3, ivermectin 3.125 uM) was 41.94% and 53.47%. The “%cell viability” value (Calu-3 cells; Calu-3, ivermectin 6.25 uM) was 6.67%, the “%cell viability” value (Calu-3 cells; Calu-3, ivermectin 12.5 uM) was 6.53% and 6.39% and the cell viability (Calu-3 cells; Ivermectin 0.05 uM alone) was 100.07 and 99.88. For the same compound, the cell viability (Calu-3 cells; Ivermectin 0.10 uM alone) was 99.91 and 100.11, the cell viability (Calu-3 cells; Ivermectin 0.20 uM alone) was 101.94 and 95.31 and the cell viability (Calu-3 cells; Ivermectin 0.40 uM alone) was 94.38 and 100.45. The maximum plasma concentration [6] was 0.049 ± 0.02 µM, the “predicted maximum lung concentration” value [7] was 0.0873 µM and the IC50 (dengue virus; Huh-7 cells) was ~4.64 µM. The IC50 (dengue virus; immortalized hepatocyte-like cell line) was ~5.33 µM, the “reduction in SARS-CoV-2 replication in vitro” value (SARS-CoV-2 [8]) was “up to 5000 fold” and the “level of plasma nonstructural protein 1” value [9] was “reduce”. The “%inhibition (qRT-PCR)” value (SARS-CoV-2 [4]; ivermectin 0.15625 uM) was 20.77% and 18.77% and 17.59%, the “%inhibition (qRT-PCR)” value (SARS-CoV-2 [4]; ivermectin 0.3125 uM) was 22.09% and 7.36% and 10.53% and the “%inhibition (qRT-PCR)” value (SARS-CoV-2 [4]; ivermectin 0.625 uM) was 17.18% and 18.46% and 16.20%. For the same compound, the “%inhibition (qRT-PCR)” value (SARS-CoV-2 [4]; ivermectin 1.25 uM) was 48.83% and 48.22% and 45.15%, the “%inhibition (qRT-PCR)” value (SARS-CoV-2 [4]; ivermectin 2.5 uM) was 68.53% and 77.48% and 81.10% and the “%inhibition (qRT-PCR)” value (SARS-CoV-2 [4]; ivermectin 5 uM) was 80.18% and 78.28% and 78.87%. The “% inhibition” value (SARS-CoV-2 [4]; Ivermectin 0.3 uM alone) was 24.74% and 21.54% and 19.89%, the “% inhibition” value (SARS-CoV-2 [4]; Ivermectin 0.6 uM alone) was 40.13% and 29.29% and 31.22% and the “% inhibition” value (SARS-CoV-2 [4]; Ivermectin 1.2 uM alone) was 46.41% and 46.78% and 47.88%. For the same compound, the “% inhibition” value (SARS-CoV-2 [4]; Ivermectin 2.4 uM alone) was 68.57% and 80.79% and 75.01% and the IC50 (SARS-CoV-2 [4]) was 1.27 µM.
